# Measurements: PubChem BioAssay (NCI)
#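 How tested: cells in 96-well plates exposed to compound for 48 hours at five concentrations. Here, GI50 denotes the concentration required for 50% inhibition of growth. TGI: total growth inhibition.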
# How the values were obtained:
# Experiment in all cases: growth of human tumour cells (NCI), 48 h
# [1] = system: U251 CNS
# [2] = system: TK-10 renal
# [3] = system: IGROV1 ovarian
# [4] = system: NCI-H522 lung
# [5] = system: A498 renal
# [6] = system: SF-268 CNS
# [7] = system: CAKI-1 renal
# [8] = system: HCT-116 colon
# [9] = system: SK-MEL-28 melanoma
# [10] = system: HS 578T breast
SMILES,TGI [1] [µM],TGI [2] [µM],TGI [3] [µM],TGI [4] [µM],TGI [5] [µM],TGI [6] [µM],TGI [7] [µM],TGI [8] [µM],TGI [9] [µM],GI50 [9] [µM],GI50 [10] [µM],TGI [10] [µM],GI50 [1] [µM],GI50 [3] [µM],GI50 [5] [µM],GI50 [6] [µM],GI50 [7] [µM],GI50 [8] [µM],GI50 [2] [µM],GI50 [4] [µM]
N#Cc1c(C(N)=O)ncn1Cc1ccccc1,> 100,> 100,> 100,> 100,> 100,> 100,> 100,> 100,,,,,,,,,,,,
COc1ccc(C2c3cc4c(cc3OC(O)(CO)C2C(=O)O)OCO4)c(OC)c1OC (configuration not stated) (tested in a mixture with another compound),> 100,> 100,> 100,,,,> 100,> 100,> 100,,,,,,,,,,,
O=C(/C=C/c1ccc2c(c1)OCO2)c1ccccc1,19,,27.7,,25.4,35.6,23,14.1,41.4,19.5,11.8,45.6,5.62,4.43,12.4,15,6.9,3.74,,
C/C=C/CP(=O)(c1ccccc1)c1ccccc1,> 100,> 100,> 100,> 100,> 100,,,> 100,> 100,,,,,,,,,,,
Cc1cccc(Oc2ccc(Nc3ncnc4ccc(NC(=O)CN5CCN(C)CC5)cc34)cc2Cl)c1,,2.24,2.38,,2.28,3.16,2.66,,3.2,1.74,1.77,4.28,,0.673,1.06,1.46,1.19,,0.701,
O=C1OC2(c3ccccc31)c1cc(I)c(O)c(I)c1Oc1c2cc(I)c(O)c1I,> 100,> 100,> 100,78.5,,> 100,85,> 100,> 100,,,> 100,,,,,,,,
O=C(CSc1nc2sc3c(c2c(=O)n1-c1ccccc1)CCCCC3)N/N=C/c1ccc(F)cc1,5.31,4.16,19.2,33,,6.57,13.5,12,13.1,3.24,1.01,4.96,1.93,3.32,,2.14,3.18,2.34,1.6,6.77
CC(=O)Oc1cc2c(=O)oc3c(OC(C)=O)c(OC(C)=O)c(OC(C)=O)c4c(=O)oc(c1OC(C)=O)c2c34,> 100,> 100,> 100,> 100,> 100,> 100,> 100,52.6,> 100,,,,,,,,,,,
Cn1cc(C(=O)/C(Cl)=C(\Cl)C(=O)O)c2ccccc21,> 100,> 100,> 100,,> 100,,> 100,> 100,> 100,,,,,,,,,,,
O=C1CC(c2ccccc2)NCN1 (configuration not stated),> 100,> 100,> 100,> 100,> 100,> 100,> 100,> 100,> 100,,,,,,,,,,,
NC(=S)N/N=C1\C(=O)N(c2cccc([N+](=O)[O-])c2)C(=O)C1C(=O)Nc1cccc([N+](=O)[O-])c1 (configuration not stated),> 100,> 100,> 100,> 100,> 100,> 100,> 100,> 100,> 100,,,,,,,,,,,
Nc1c(C(=O)Nc2cccc3ccccc23)sc2nc3c(cc12)CCCCC3,> 50,> 50,> 50,4.7,25.8,> 50,,> 50,> 50,4.32,0.35,> 50,0.998,1.9,0.646,2.82,,0.407,43.4,0.724
Cc1cc(S(=O)(=O)/N=C(\N)n2nc(C)c(C)c2C)c(SCc2ccccc2)cc1Cl,> 100,> 100,,> 100,> 100,> 100,,> 100,> 100,> 100,> 100,> 100,7.47,,> 100,> 100,,38.5,> 100,> 100
O=C(CC1(O)C(=O)Nc2ccccc21)c1ccc(O)cc1O (configuration not stated),,> 100,> 100,> 100,> 100,> 100,> 100,> 100,> 100,,,,,,,,,,,
Fc1ccc(Nc2ccc3cc(OCCCN4CCOCC4)ccc3n2)cc1F,7.79,,> 100,5.37,7.64,> 100,25.6,> 100,3.93,1.87,3.06,9.2,2.92,10.9,2.21,6.55,3.71,4.5,,2.15
N#C/C(=C\c1ccc(Cl)cc1)n1nnc2cc(F)c(F)cc21,3.06,,4.46,3.85,2.66,4.45,3.2,3.45,4.38,2.04,2.76,8.49,1.62,1.97,1.28,1.98,1.7,1.77,,1.59
COC1=CC(C)C2C[C@H]3O[C@H](O)C[C@H]4C(C)C(=O)C(O)C([C@@]2(C)C1=O)[C@@]34C (some centres not stated),,> 100,> 100,> 100,> 100,,> 100,> 100,> 100,,,,,,,,,,,
COc1ccc(C(=O)O)c2c(=O)c3ccccc3[nH]c12,> 100,> 100,> 100,> 100,> 100,> 100,> 100,> 100,> 100,,,,,,,,,,,

SMILES,TGI [1] [µM],TGI [2] [µM],TGI [3] [µM],TGI [4] [µM],TGI [5] [µM],TGI [6] [µM],TGI [7] [µM],TGI [8] [µM],TGI [9] [µM],GI50 [9] [µM],GI50 [10] [µM],TGI [10] [µM],GI50 [1] [µM],GI50 [3] [µM],GI50 [5] [µM],GI50 [6] [µM],GI50 [7] [µM],GI50 [8] [µM],GI50 [2] [µM],GI50 [4] [µM]
N#Cc1c(N)nc(N2CCOCC2)c(C#N)c1-c1cccc(O)c1,> 100,,61.2,,58.3,> 100,> 100,> 100,> 100,> 100,40.7,> 100,> 100,18.7,14.8,> 100,> 100,> 100,,
CCCCCCCCO/N=C\c1c2c(O)c3c(O)c(C)c4c(c3c1O)C(=O)C(C)(O/C=C\C(OC)C(C)C(OC(C)=O)C(C)C(O)C(C)C(O)C(C)/C=C\C=C(\C)C(=O)N2)O4 (configuration not stated),3.03,,,,7.12,8.18,5.04,2.19,4.17,1.37,1.07,3.1,1.14,,1.81,2.02,1.33,1.06,,
CO/C=C/c1cc2c(cc1C(OC)OC)OCO2,> 100,> 100,> 100,> 100,,> 100,> 100,> 100,> 100,,,,,,,,,,,
CC1CC(C)C(=O)C(C(=O)CC2CC(=O)NC2=O)C1 (configuration not stated),> 100,> 100,> 100,> 100,> 100,> 100,> 100,> 100,> 100,,,,,,,,,,,
Cn1c(Cc2ccccc2)nc2cc3ccccc3cc21,> 100,> 100,> 100,> 100,,> 100,> 100,42.2,> 100,37.9,22.2,57.7,28.2,25.5,,34.7,35.5,21,47.9,34.5
CC(=O)[CH-]C(C)=O.CC(=O)[CH-]C(C)=O.CC(=O)[CH-]C(C)=O.[Cl-].[Hf+4],> 100,> 100,> 100,> 100,> 100,> 100,> 100,> 100,> 100,> 100,,,> 100,> 100,> 100,> 100,> 100,> 100,> 100,> 100
CCN(CC)CCCN1C(=O)c2c(c(C)c3c(oc4cc(O)ccc43)c2C)C1=O,3.2,3.28,3.4,3.66,16.9,3.34,3.05,3.11,3.4,1.83,,,1.74,1.74,5.06,1.74,1.62,1.62,1.77,1.84
CC1(C)OC(=O)C=C(O)O1.CC1(C)OC(=O)C=C(O)O1.CCO.Oc1ccc2c(c1)CCC2.[Ti],,> 100,> 100,> 100,> 100,> 100,> 100,> 100,> 100,> 100,,,,> 100,> 100,> 100,> 100,> 100,> 100,> 100
Cc1ccc(NC(=O)/C(=N/NC(=O)CC#N)C2C(=O)N(c3ccccc3)N=C2N)cc1C (configuration not stated),> 100,> 100,> 100,> 100,> 100,> 100,> 100,> 100,> 100,,,,,,,,,,,
CCC(=O)Nc1ccc2c(c1)CN1C(=O)c3ccccc3C1=N2,> 100,> 100,> 100,> 100,,> 100,> 100,> 100,> 100,> 100,> 100,> 100,> 100,> 100,,> 100,> 100,> 100,> 100,> 100
C=C1C(=O)O[C@H]2[C@H]1CC/C(COC(=O)NCCc1c[nH]c3ccccc13)=C\CC[C@@]1(C)O[C@@H]21,17.1,3.55,2.9,2.84,21.2,13.5,,2.39,3.11,1.38,10.3,38.4,4.88,1.09,8.19,2.94,,1.01,1.92,1.26
CCCN1C(=O)/C(=C/c2ccc(O)cc2)SC1=Nc1ccccc1,29,38.5,> 100,> 100,,32.4,38.8,31.3,50.9,27.7,,,15.6,38,,17.1,21.6,17.5,18.6,39.7
O=C(Nc1ccc(N=Nc2ccccc2)cc1)Sc1ccccc1C(=O)O,> 100,> 100,2.48,> 100,> 100,> 100,> 100,> 100,> 100,,,,,,,,,,,
C/C=C/C/C=C/CCC(=O)C1OC1C(N)=O (configuration not stated),30.7,25.9,31.8,25.8,,26.9,29.8,28.2,30.6,,,76.2,,,,,,,,
CCC[CH2][Sn]([CH2]CCC)([O]C(=O)c1cccc(F)c1F)[O][Sn]([CH2]CCC)([CH2]CCC)[O]C(=O)c1cccc(F)c1F,0.449,0.562,2.15,0.0697,0.526,0.541,0.363,0.848,0.369,0.154,,,0.147,0.781,0.202,0.157,0.116,0.257,0.206,0.01
O=C1NC(=O)[C@H]2C3C=CC([C@@H]12)[C@@H]1C(=O)NC(=O)[C@H]31,> 100,> 100,> 100,> 100,,> 100,> 100,> 100,> 100,,,> 100,,,,,,,,
NC1=NN(c2ccccc2)C(=O)C1C(=O)C(=O)Nc1cccc(C(F)(F)F)c1 (configuration not stated),> 100,> 100,> 100,> 100,> 100,> 100,> 100,> 100,,,,,,,,,,,,
